From publication PMC5412877, “Discovery of a PCAF Bromodomain Chemical Probe” (Angewandte Chemie (International Ed. in English), 2016)
Read-outs that look alike come from different tables or passages of the source.

Key:
Format in all cases: binding
PCAF Brd [1] = target: T1, PCAF Brd (Homo sapiens, UniProt Q92831); assay: Isothermal titration calorimetry (ITC), PCAF Brd
T1 construct: Human bromodomains were cloned, expressed and purified as previously described; made in house
T1 sequence (Q92831 723-827 limits assumed): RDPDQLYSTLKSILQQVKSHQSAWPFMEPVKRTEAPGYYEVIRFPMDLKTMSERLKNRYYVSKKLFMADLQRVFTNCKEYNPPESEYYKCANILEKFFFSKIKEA
Experimental: Isothermal Titration Calorimetry (ITC)
Experiments were carried out on a Nano-ITC Standard Volume Instrument (TA Instruments). All experiments were carried out at 25 °C in 20 mM HEPES pH 7.5, 150 mM NaCl, 0.5 mM TCEP and 5% glycerol. Protein solutions were buffer exchanged by gel filtration. The titrations were conducted using an initial injection of 2 μL followed by 32 injections of 8 μL. Background dilution heat was substracted from each experiment. Thermodynamic parameters were calculated using ΔG = ΔH-T ΔS = -RTlnKB , where KD = 1/KB. ΔG, ΔH and ΔS are changes in free energy, enathalpy and entropy resepectively. Independent single site binding models were employed in data analysis.
Supplemental Figure 3. ITC trace of D-Moses and PCAF Brd […]

PCAF Brd [2] = target: T1, PCAF Brd; assay: Differential scanning fluorimetry (DSF), PCAF Brd; settings: compound concentration 10 μM
Experimental: (§1) Protein Expression and Purification
(§2) Human bromodomains were cloned, expressed and purified as previously described.[1]
(§3) Differential Scanning Fluorimetry (DSF)
(§4) Thermal melting points were recorded using an Mx3005p Real Time PCR Machine (Stratagene).
(§5) Subject proteins were buffered in 10 mM HEPES at pH 7.5, 500 mM NaCl and assayed in a 96-well […]
(§6) plate at a final concentration of 2 μM in 20 μL volume. Compounds were then added to a final […]
(§7) concentration of 10 μM. SPYRO Orange (Molecular Probes) was used as a fluorescent probe at a […]
(§8) dilution of 1:1000. Excitation and emission filters for the SPYRO-Orange dye were set to 465 nm and […]
(§9) 590 nm, respectively. The temperature was raised with a step of 3 °C/min from 25 °C to 96 °C and […]
(§10) fluorescence readings were taken at each interval. Data was analysed as previously described.[2]
(§11) Bromodomain affinity selectivity panel of (S)-11
(§12) Supplemental Figure 1. DSF Selectivity panel of (S)-11 against 48 human Bromodomains. […]
(§13) ┼Mean ΔTm ± SEM (number of measurements= 2). Compound concentration: 10 μM […]
(§14) (1 picture or pasted object on this page, not shown here)

GCN5L2 = target: T2, GCN5L2 (Homo sapiens, UniProt Q92830); assay: Differential scanning fluorimetry (DSF), GCN5 (GCN5L2) Brd; settings: compound 10 μM; for ΔTm at 10 µM: read-out: GCN5L2 ΔTm (°C) (DSF)
T2 construct: made in house
T2 sequence (Q92830 728-832 limits assumed): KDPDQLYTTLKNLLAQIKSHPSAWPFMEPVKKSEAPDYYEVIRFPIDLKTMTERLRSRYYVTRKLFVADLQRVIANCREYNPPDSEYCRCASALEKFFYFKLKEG
Experimental: as §1, §2, §3, §4, §5, §6, §7, §8, §9, §10, §11, §12, §13, §14

[3] = Table 1, read-out: K D [μM] (ITC) PCAF Brd
[4] = Supplemental Table 3, compound concentration 30 μM, protein concentration 280-320 μM, read-out: PCAF KD (μM) (ITC)
[5] = Table 2, read-out: K D (nM) (ITC) PCAF Brd

## CCC(CNc1nn2c(C)nnc2c2ccccc12)N(C)C (stereo not shown) [Compound 16]
PCAF Brd [1]; [3]
  Kd: 6.9 ± 1.4 µM

## Cc1nnc2c3ccccc3c(NC(C)CN(C)C)nn12 (stereo not shown) [Compound 11]
PCAF Brd [2]
  ΔT m [°C] PCAF (DSF): 5.6 °C
GCN5L2
  ΔTm at 10 µM: 2.5 °C
PCAF Brd [1]; [4]
  Kd: 0.298 µM
PCAF Brd [1]; [3]
  Kd: 0.3 ± 0.039 µM

## Cc1nnc2c3ccccc3c(N[C@H]3CCCN(Cc4ccccc4)C3)nn12 [Compound 56]
PCAF Brd [2]
  ΔT m [°C] PCAF (DSF): 0.6 °C
GCN5L2
  ΔTm at 10 µM: 0.1 °C
PCAF Brd [1]; [4]
  Kd: > 30 µM

## FC(F)(F)c1nnc2c3ccccc3c(NCc3ccccc3)nn12 [Compound 85]
PCAF Brd [2]
  ΔT m [°C] PCAF (DSF): 3.7 °C
GCN5L2
  ΔTm at 10 µM: 0.9 °C
PCAF Brd [1]; [4]
  Kd: > 30 µM

## COc1ccc([C@@H]([C@H](C)Nc2nn3c(C)nnc3c3ccccc23)N(C)C)cc1 [Compound 44]
PCAF Brd [2]
  ΔT m [°C] PCAF (DSF): 10.3 °C
GCN5L2
  ΔTm at 10 µM: 6.8 °C
PCAF Brd [1]; [5]
  Kd: 0.179 ± 0.048 µM

## Cc1nnc2c3ccccc3c(NC(C)c3cnccn3)nn12 (stereo not shown) [Compound 72]
PCAF Brd [1]; [4]
  Kd: > 30 µM

## Cc1nnc2c3ccccc3c(NCC3CCCCN3C)nn12 (stereo not shown) [Compound 60]
PCAF Brd [2]
  ΔT m [°C] PCAF (DSF): 2.9 °C
GCN5L2
  ΔTm at 10 µM: 1.1 °C
PCAF Brd [1]; [4]
  Kd: 1.13 µM

## Cc1nnc2c3ccccc3c(NCC3CCCN3C)nn12 (stereo not shown) [Compound 97]
PCAF Brd [2]
  ΔT m [°C] PCAF (DSF): 2.8 °C
GCN5L2
  GCN5L2 ΔTm (°C) (DSF): 0.9 °C
PCAF Brd [1]; [4]
  Kd: 18.2 µM

## Cc1nnc2c3ccccc3c(NCCCCN(C)C)nn12 [Compound 9]
PCAF Brd [2]
  ΔT m [°C] PCAF (DSF): 0.9 °C
GCN5L2
  ΔTm at 10 µM: 0.3 °C
PCAF Brd [1]; [3]
  Kd: > 30 µM

## CN(C)[C@H]1CCC[C@@H]1Nc1nn2c(C(F)(F)F)nnc2c2ccccc12 [Compound 84]
PCAF Brd [2]
  ΔT m [°C] PCAF (DSF): 0.7 °C
GCN5L2
  ΔTm at 10 µM: 0.2 °C
PCAF Brd [1]; [4]
  Kd: > 30 µM

## Cc1nnc2c3ccccc3c(NCC(=O)c3ccccc3)nn12 [Compound 81]
PCAF Brd [2]
  ΔT m [°C] PCAF (DSF): 1.0 °C
GCN5L2
  GCN5L2 ΔTm (°C) (DSF): 0.3 °C

## Cc1nnc2c3ccccc3c(N[C@@H]3CCCN(C(=O)OCc4ccccc4)C3)nn12 [Compound 65]
PCAF Brd [1]; [4]
  Kd: > 30 µM

## Cc1nnc2c3ccccc3c(N[C@@H](C)[C@H](O)c3ccccc3)nn12 [Compound 77]
PCAF Brd [2]
  ΔT m [°C] PCAF (DSF): 0.3 °C
GCN5L2
  ΔTm at 10 µM: 0.2 °C

## CCN1CCCC1CNc1nn2c(C(F)(F)F)nnc2c2ccccc12 (stereo not shown) [Compound 91]
PCAF Brd [2]
  ΔT m [°C] PCAF (DSF): 0.1 °C
GCN5L2
  ΔTm at 10 µM: 0.1 °C
PCAF Brd [1]; [4]
  Kd: > 30 µM

## Cc1nnc2c3ccccc3c(NCCN3CCOCC3)nn12 [Compound 98]
PCAF Brd [2]
  ΔT m [°C] PCAF (DSF): 0.7 °C
GCN5L2
  ΔTm at 10 µM: 0.2 °C

## CC(C)CC(CN(C)C)Nc1nn2c(C(F)(F)F)nnc2c2ccccc12 (stereo not shown) [Compound 86]
PCAF Brd [2]
  ΔT m [°C] PCAF (DSF): 0.02 °C
GCN5L2
  GCN5L2 ΔTm (°C) (DSF): 0.2 °C
PCAF Brd [1]; [4]
  Kd: > 30 µM

## COC(=O)c1ccc([C@@H]([C@H](C)Nc2nn3c(C)nnc3c3ccccc23)N(C)C)cc1 [Compound 40]
PCAF Brd [2]
  ΔT m [°C] PCAF (DSF): 9.6 °C
GCN5L2
  ΔTm at 10 µM: 6.3 °C
PCAF Brd [1]; [5]
  Kd: 0.133 ± 0.015 µM

## Cc1nnc2c3ccccc3c(Cl)nn12 [Compound 94]
PCAF Brd [2]
  ΔT m [°C] PCAF (DSF): 0 °C
GCN5L2
  ΔTm at 10 µM: 0.2 °C

## Cc1nnc2c3ccccc3c(N[C@@H](C)[C@H](c3ccc(C(F)(F)F)cc3)N(C)C)nn12 (relative stereo) [Compound 43]
PCAF Brd [2]
  ΔT m [°C] PCAF (DSF): 9.1 °C
GCN5L2
  ΔTm at 10 µM: 7.2 °C
PCAF Brd [1]; [5]
  Kd: 0.163 ± 0.117 µM

## Cc1nnc2c3ccccc3c(N3CCN(CCN4CCCCC4)CC3)nn12 [Compound 62]
PCAF Brd [2]
  ΔT m [°C] PCAF (DSF): 0.2 °C
GCN5L2
  ΔTm at 10 µM: 0.3 °C
PCAF Brd [1]; [4]
  Kd: > 30 µM

## CCC(CNc1nn2c(C(F)(F)F)nnc2c2ccccc12)N(C)C (stereo not shown) [Compound 89]
PCAF Brd [2]
  ΔT m [°C] PCAF (DSF): 0.4 °C
GCN5L2
  GCN5L2 ΔTm (°C) (DSF): 0.2 °C
PCAF Brd [1]; [4]
  Kd: > 30 µM

## Cc1nnc2c3ccccc3c(N[C@@H]3CCCN(Cc4ccccc4)C3)nn12 [Compound 64]
PCAF Brd [2]
  ΔT m [°C] PCAF (DSF): 1.1 °C
GCN5L2
  GCN5L2 ΔTm (°C) (DSF): 0.5 °C
PCAF Brd [1]; [4]
  Kd: > 30 µM

## CN(C)CCNc1nn2c(C(F)(F)F)nnc2c2ccccc12 [Compound 87]
PCAF Brd [1]; [4]
  Kd: > 30 µM
